Data taken from US20060241124A1, “Combinations comprising paroxetine and 2- (s) - (4-fluoro-2-methyl-phenyl) -piperazine-1-carboxylic acid [1- (r)- (3,5-bis-trifluoro-2-methyl-phenyl) -ethyl]-methyl amide for treatment of depression and/or anxiety” (priority 2003, published 2006).
Where a name gives a salt, the structure may show the parent alone.

Test system: mongolian gerbils
Assay: gerbil social interaction model (time spent in active social interactions)
Assay type: in vivo
Settings: one hour after administration
Procedure: Paroxetine hydrochloride hemihydrate (0.3 mg/kg p.o of the paroxetine measured as the free base.), 2-(S)-(4-Fluoro-2-methyl-phenyl)-piperazine-1-carboxylic acid [1-(R)-(3,5-bis-trifluoromethyl-phenyl)-ethyl]-methyl-amide methansulphonate (hereinafter compound A) (0.1 mg/kg i.p of the compound A measured as the free base) and a combination of paroxetine (0.3 mg/kg p.o. of the paroxetine measured as the free base) and compound A (0.1 mg/kg i.p. of the compound A measured as the free base) were administered independently in mongolian gerbils to assess the effect on time spent in active social interactions.
The results obtained one hour after administration, expressed as a percentage variation of the time spent in active social interactions by each animal in respect to the value obtained by treatment of control animals, are summarised in table 1.

CS(=O)(=O)O.Cc1cc(F)ccc1[C@H]1CNCCN1C(=O)N(C)[C@H](C)c1cc(C(F)(F)F)cc(C(F)(F)F)c1 [Compound A, 2-(S)-(4-Fluoro-2-methyl-phenyl)-piperazine-1-carboxylic acid [1-(R)-(3,5-bis-trifluoromethyl-phenyl)-ethyl]-methyl-amide methansulphonate]
% variation of the time spent in active social interactions in respect to control animals (0.1 mg/kg i.p. (measured as the free base)): −8%

Fc1ccc([C@@H]2CCNC[C@H]2COc2ccc3c(c2)OCO3)cc1 [Paroxetine hydrochloride hemihydrate, (−) trans-4-(4′-fluorophenyl)3-(3′-4′-methylenedioxyphenoxymethyl)piperidine]
% variation of the time spent in active social interactions in respect to control animals (0.3 mg/kg p.o. (measured as the free base)): −2%
